Holding throughout (experiment): DTP human tumour cell line panel, 48 h
Assay [1] relates to OVCAR-4 ovarian.
The subject of assay [2] is IGROV1 ovarian.
The test system of assay [3] is SR leukemia.
Assay [4] has as its system MOLT-4 leukemia.
The test system of assay [5] is CAKI-1 renal.
In assay [6] the test system is UO-31 renal.
Assay [7] has as its system A549 NSCLC.
Assay [8] deals with HOP-62 NSCLC.
The test system of assay [9] is OVCAR-3 ovarian.

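The compound was tested at five concentrations on cells cultured in 96-well plates, with a 48-hour exposure period. GI50 marks 50% less growth. TGI: concentration producing complete growth inhibition.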 Some results are limits rather than exact numbers.

For orientation: TGI means the concentration at which net growth stops. A low value points to more potent growth arrest. In general, GI50 refers to the concentration that inhibits growth by half.

As for `O=c1nc(N2CCCC2)nc(N2CCCC2)s1`, the TGI in [1], in assay [2], in [3], in assay [4], in assay [5] and in assay [6] was over 100 µM each time. For the same compound, the TGI in [7] and in assay [8] was over 100 µM in each case.
Turning to `OCCCc1cnco1`, the concentration for total growth inhibition (TGI) in [1], in assay [9], in [2], in assay [3], in [4] and in assay [5] was over 100 µM throughout. Besides, the total growth inhibition concentration (TGI) in assay [6], in assay [7] and in assay [8] was over 100 µM each time.
`CC(=O)N(CCN1C(=O)c2ccccc2C1=O)CCN1C(=O)c2ccccc2C1=O`: the total growth inhibition concentration (TGI) in [1], in assay [9], in assay [3], in assay [4], in assay [5] and in assay [6] was over 100 µM throughout. The concentration for total growth inhibition (TGI) in assay [7] and in assay [8] was over 100 µM each time.
For the compound `O=C(Cc1ccccc1)N/N=C(/c1nc2ccc([N+](=O)[O-])cc2[nH]c1=O)C(O)c1ccccc1Cl` (stereo not given), the TGI in assay [1], in assay [2], in assay [3], in assay [4], in assay [5] and in [6] was over 100 µM each time. Further, the TGI in assay [7] and in [8] was over 100 µM each time.
`O=[N+]([O-])c1ccc(/C(Cl)=C/c2ccc(/C=C(\Cl)c3ccc([N+](=O)[O-])cc3[N+](=O)[O-])cc2)c([N+](=O)[O-])c1`: the total growth inhibition concentration (TGI) in [1], in [2], in assay [3], in assay [4], in assay [5] and in assay [6] was over 100 µM throughout. In addition, the concentration for total growth inhibition (TGI) in [7] and in assay [8] was over 100 µM in each case.
`C#CCn1c(=O)c2cccnc2n(CC#C)c1=O`: the total growth inhibition concentration (TGI) in assay [1], in assay [3], in [4], in assay [5], in assay [7] and in assay [8] was over 100 µM each time.
Regarding `CCc1cccc(CC)c1NC(=O)CC1SC(N)=NC1=O` (stereo not given), the concentration for total growth inhibition (TGI) in assay [1], in [9], in assay [2], in assay [3], in [4] and in assay [6] was over 100 µM in each case. Besides, the total growth inhibition concentration (TGI) in [7] and in assay [8] was over 100 µM throughout.
`C=C1c2[nH]c3ccccc3c2CC(C(=O)O)N1C(O)c1ccc(S(=O)(=O)O)cc1` (stereo not given): the TGI in assay [1], in assay [9], in assay [3], in [4], in assay [5] and in assay [6] was over 100 µM in each case. Besides, the TGI in [7] and in [8] was over 100 µM throughout.
Consider `O=C([O-])CCc1ccccc1.O=C([O-])CCc1ccccc1.O=C([O-])CCc1ccccc1.O=C([O-])CCc1ccccc1.[Mo+2].[Mo+2]`, for which the GI50 in [1], in [9], in assay [2], in assay [3], in assay [4] and in assay [5] was over 100 µM in each case. For the same compound, the GI50 in assay [6] and in assay [7] was over 100 µM in each case. Further, the TGI in assay [1], in assay [9], in assay [2], in assay [3], in assay [4] and in assay [5] was over 100 µM in each case. In addition, the TGI in [6] and in assay [7] was over 100 µM in each case.
Consider `COc1cc2c(cc1OCCCCn1c(-c3cccs3)nc3ccccc31)N=C[C@@H]1CCCN1C2=O`, for which the GI50 in [1] is 1.61 µM; in assay [9] it was 1.72 µM; in assay [2], 0.754 µM; in assay [3] it was 0.45 µM; in [4], 3.79 µM; in assay [5], 0.949 µM. In addition, the GI50 in assay [6] was 1.23 µM; in assay [7], 3.22 µM. Moreover, the TGI was 4.67 µM in assay [1]; 4.29 µM in assay [9]; 2.86 µM in [2]; over 100 µM in assay [3]; over 100 µM in [4]; 6.71 µM in assay [5]. Further, the results for the TGI in assay [6] and in [7] were 5.34 µM and over 100 µM, respectively.
